Molecular target: T1, TNKS1 (Homo sapiens, UniProt O95271)
T1 sequence (O95271 1-1327): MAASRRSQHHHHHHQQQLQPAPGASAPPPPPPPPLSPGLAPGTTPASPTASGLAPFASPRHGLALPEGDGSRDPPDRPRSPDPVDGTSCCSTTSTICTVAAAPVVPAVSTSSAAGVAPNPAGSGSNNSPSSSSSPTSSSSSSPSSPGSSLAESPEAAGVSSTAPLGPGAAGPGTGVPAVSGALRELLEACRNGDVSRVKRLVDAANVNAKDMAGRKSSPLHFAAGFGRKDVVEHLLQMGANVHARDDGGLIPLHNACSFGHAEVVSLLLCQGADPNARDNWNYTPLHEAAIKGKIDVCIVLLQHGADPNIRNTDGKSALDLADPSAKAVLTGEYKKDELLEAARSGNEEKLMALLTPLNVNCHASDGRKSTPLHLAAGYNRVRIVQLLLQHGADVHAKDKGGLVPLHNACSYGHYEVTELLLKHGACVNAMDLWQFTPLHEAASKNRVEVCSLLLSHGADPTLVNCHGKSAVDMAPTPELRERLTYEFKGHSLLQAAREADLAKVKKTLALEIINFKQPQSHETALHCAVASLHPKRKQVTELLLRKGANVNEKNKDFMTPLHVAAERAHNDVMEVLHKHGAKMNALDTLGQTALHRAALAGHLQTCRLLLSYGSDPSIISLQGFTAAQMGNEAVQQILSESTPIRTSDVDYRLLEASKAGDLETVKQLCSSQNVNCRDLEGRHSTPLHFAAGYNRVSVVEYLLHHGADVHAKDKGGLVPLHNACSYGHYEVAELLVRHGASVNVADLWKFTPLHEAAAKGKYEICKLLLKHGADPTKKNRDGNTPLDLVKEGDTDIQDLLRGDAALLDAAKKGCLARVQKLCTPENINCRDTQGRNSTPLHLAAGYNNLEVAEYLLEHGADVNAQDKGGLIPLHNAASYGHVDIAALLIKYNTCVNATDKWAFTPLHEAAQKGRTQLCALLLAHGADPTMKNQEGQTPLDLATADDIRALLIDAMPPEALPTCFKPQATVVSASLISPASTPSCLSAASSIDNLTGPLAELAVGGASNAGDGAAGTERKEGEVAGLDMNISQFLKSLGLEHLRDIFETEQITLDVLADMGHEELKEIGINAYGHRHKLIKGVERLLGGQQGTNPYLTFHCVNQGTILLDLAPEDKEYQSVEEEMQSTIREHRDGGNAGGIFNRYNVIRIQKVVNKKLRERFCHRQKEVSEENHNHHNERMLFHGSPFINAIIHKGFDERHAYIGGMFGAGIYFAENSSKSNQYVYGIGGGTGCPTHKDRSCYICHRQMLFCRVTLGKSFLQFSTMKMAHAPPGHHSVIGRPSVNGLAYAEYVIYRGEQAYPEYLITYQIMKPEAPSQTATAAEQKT
Experiment: TNKS1 Assay 1 (TNKS1 Histone Ribosylation Assay Kit, biotin-labeled NAD+)
Type: biochemical
Details: chemiluminescent readout, 384 well
Protocol: The potency of the compounds according to the invention was assessed by applying an in vitro inhibition assay. The TNKS1 catalyzed NAD^+-dependent ribosylation of a suitable protein substrate was detected using a commercially available biotin/streptavidin binding based assay format [TNKS1 Histone Ribosylation Assay Kit (Biotin-labeled NAD+), Catalog #80579; BPS Bioscience, San Diego, USA]. Here, the incorporation of a biotin-labeled NAD+ during the TNKS1 catalyzed ribosylation reaction was detected with a streptavidin-HRP coupled chemi-luminescent readout. The intensity of the readout signal is proportional to the incorporated NAD^+. Inhibition of TNKS1 leads to a decreased incorporation of NAD^+ and consequently to a lower readout signal intensity. The concentration of a test compound which inhibits the enzyme activity by 50% (corresponds to half of the normed readout signal intensity) is reported as IC50.
The assay was conducted in a 384 well MTP format according to the manufacturer's protocol [bpsbioscience.com/poly-adp-ribose-polymerase/assay-kit/tnks1-histone-ribosylation-assay-kit-biotin-labeled-nad-80579 referencing: Brown, J. A., Marala, R. B. J. Pharmacol. Toxicol. Methods 2002 47:137-41] and using a BMG Pherastar MTP reader [BMG-Labtech, Offenburg, Germany].

- IC50 (Table 1): 0.42 µM
- IC50 (first table): 0.42 µM
Compound: COC(=O)c1ncoc1C(=O)Nc1ccc(NC(=O)c2ccc(F)cc2Cl)cc1 [Example 14, Methyl 5-({4-[(2-chloro-4-fluorobenzoyl)amino]phenyl}carbamoyl)-1,3-oxazole-4-carboxylate]
